We go through six molecules from US20040266864A1, “Methods for treating depression and other CNS disorders using enantiomerically enriched desmethyl-and didesmethyl-metabolites of citalopram” (Sepracor Inc., priority 2001, published 2004).

pIC50, pKi: −log10 of the molar value.

For data set [1], the system named is receptors for various neurotransmitters, enzymes, other reuptake sites. As to conditions: acetylcholine, histamine, norepinephrine, dopamine receptors, monoamine oxidase; cited from earlier work.
The next data set relates to cytochrome P450 enzymes. As to conditions: P450 4A, 2C19, 2D6, 1A2, 2C9, 2E1; cited from earlier work.
A further data set has as its target T1, NE uptake (Rattus norvegicus, UniProt Q63380).
T1 construct: norepinephrine (NE) and dopamine into similarly prepared synaptosomes; from tissue; host or cells: rat brain synaptosomes
Kind of data set: Inhibition of norepinephrine reuptake into rat brain synaptosomes. It counts as biochemical. As to conditions: functional monoamine uptake.

In data set [2] the target is 5-HT Transporter (Rattus norvegicus, UniProt P31652). Kind of data set: Rat 5-HT transporter IC50/Ki. It counts as binding.
The target in another data set is T2, 5-HT uptake (Rattus norvegicus, UniProt P31652).
T2 construct: synaptosomes prepared from various regions of rat brains; from tissue; host or cells: rat brain synaptosomes
Kind of data set: Inhibition of reuptake of radiolabeled serotonin into rat brain synaptosomes. It counts as biochemical. As to conditions: functional monoamine uptake.

The next data set deals with DA Transporter (Homo sapiens, UniProt Q01959). The format is binding.
Another data set concerns the target T3, DA uptake (Rattus norvegicus, UniProt P23977).
T3 construct: norepinephrine (NE) and dopamine into similarly prepared synaptosomes; from tissue; host or cells: rat brain synaptosomes
Kind of data set: Inhibition of dopamine reuptake into rat brain synaptosomes. It counts as biochemical. As to conditions: functional monoamine uptake.

In a further data set the target is NE Transporter (Homo sapiens, UniProt P23975). Kind of data set: Human NE transporter IC50/Ki. It counts as binding.
The target in data set [3] is 5-HT Transporter (Homo sapiens, UniProt P31645). It counts as binding.
The conditions of data set [4]: Sanchez and Hyttel 1999; cited from earlier work.

Sequence of DA Transporter (Q01959 whole entry): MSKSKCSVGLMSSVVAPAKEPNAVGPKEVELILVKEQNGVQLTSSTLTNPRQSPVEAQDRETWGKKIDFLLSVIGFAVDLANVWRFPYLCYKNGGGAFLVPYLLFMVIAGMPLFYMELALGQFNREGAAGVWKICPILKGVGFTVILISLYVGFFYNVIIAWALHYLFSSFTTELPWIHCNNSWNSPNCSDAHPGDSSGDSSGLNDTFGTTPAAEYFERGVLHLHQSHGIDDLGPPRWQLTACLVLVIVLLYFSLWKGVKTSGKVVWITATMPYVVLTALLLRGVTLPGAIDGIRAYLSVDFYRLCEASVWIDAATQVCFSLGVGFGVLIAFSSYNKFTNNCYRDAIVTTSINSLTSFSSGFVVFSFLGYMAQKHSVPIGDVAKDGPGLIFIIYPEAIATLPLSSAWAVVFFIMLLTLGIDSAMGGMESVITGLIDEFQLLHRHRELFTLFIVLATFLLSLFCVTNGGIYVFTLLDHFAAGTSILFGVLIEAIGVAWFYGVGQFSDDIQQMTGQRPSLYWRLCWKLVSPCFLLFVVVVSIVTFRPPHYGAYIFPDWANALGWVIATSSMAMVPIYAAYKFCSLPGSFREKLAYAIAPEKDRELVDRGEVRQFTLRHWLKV
T3 sequence (P23977 whole entry): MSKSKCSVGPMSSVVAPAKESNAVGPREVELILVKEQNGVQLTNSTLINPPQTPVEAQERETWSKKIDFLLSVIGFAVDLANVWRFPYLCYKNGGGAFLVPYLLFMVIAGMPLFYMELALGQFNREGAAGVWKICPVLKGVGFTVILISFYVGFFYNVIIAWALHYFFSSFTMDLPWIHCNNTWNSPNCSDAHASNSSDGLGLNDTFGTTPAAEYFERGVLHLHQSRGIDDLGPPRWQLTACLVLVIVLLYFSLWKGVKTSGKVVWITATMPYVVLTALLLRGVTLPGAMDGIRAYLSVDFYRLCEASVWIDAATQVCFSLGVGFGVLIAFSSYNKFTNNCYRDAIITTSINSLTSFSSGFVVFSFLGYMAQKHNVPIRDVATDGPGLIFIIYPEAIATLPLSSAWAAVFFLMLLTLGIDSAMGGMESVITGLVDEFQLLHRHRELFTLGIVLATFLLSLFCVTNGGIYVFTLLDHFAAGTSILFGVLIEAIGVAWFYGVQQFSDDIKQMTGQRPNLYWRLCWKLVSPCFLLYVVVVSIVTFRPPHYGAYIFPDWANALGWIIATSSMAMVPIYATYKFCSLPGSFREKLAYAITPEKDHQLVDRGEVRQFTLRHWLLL
T1 sequence (Q63380 1-617): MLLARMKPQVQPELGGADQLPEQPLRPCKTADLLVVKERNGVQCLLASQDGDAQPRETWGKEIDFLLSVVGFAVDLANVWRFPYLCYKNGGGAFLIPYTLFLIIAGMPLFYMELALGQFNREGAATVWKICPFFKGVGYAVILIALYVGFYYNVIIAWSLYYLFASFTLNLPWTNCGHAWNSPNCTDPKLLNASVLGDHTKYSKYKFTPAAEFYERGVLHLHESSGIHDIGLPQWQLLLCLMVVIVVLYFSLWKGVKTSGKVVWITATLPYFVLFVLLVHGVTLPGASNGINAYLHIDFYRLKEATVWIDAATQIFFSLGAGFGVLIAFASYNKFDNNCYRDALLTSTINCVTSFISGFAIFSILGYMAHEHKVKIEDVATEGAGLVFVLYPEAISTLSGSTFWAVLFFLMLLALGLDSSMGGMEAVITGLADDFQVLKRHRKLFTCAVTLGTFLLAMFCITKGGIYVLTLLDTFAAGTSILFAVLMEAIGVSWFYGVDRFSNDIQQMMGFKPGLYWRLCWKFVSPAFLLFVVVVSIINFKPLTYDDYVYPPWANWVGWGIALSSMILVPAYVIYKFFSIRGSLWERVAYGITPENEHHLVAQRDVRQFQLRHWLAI
Sequence of 5-HT Transporter (Homo sapiens, UniProt P31645) (P31645 whole entry): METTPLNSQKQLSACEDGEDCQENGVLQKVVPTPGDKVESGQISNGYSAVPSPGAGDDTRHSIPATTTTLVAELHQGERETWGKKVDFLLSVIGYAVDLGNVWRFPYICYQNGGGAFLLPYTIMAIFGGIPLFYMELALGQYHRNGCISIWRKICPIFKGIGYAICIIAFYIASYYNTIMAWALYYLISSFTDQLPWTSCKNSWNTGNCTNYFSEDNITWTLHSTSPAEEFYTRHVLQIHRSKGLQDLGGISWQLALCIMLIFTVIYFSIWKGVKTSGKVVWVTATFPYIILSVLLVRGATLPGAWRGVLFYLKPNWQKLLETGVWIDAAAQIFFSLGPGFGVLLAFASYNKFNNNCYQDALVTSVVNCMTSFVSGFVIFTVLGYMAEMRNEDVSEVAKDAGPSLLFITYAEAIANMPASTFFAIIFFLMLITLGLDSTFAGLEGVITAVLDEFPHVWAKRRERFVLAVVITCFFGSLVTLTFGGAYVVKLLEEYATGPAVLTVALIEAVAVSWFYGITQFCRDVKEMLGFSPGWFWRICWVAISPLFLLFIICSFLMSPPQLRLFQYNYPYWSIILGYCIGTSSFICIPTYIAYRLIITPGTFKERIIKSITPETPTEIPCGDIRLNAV
Sequence of 5-HT Transporter (Rattus norvegicus, UniProt P31652) (P31652 whole entry): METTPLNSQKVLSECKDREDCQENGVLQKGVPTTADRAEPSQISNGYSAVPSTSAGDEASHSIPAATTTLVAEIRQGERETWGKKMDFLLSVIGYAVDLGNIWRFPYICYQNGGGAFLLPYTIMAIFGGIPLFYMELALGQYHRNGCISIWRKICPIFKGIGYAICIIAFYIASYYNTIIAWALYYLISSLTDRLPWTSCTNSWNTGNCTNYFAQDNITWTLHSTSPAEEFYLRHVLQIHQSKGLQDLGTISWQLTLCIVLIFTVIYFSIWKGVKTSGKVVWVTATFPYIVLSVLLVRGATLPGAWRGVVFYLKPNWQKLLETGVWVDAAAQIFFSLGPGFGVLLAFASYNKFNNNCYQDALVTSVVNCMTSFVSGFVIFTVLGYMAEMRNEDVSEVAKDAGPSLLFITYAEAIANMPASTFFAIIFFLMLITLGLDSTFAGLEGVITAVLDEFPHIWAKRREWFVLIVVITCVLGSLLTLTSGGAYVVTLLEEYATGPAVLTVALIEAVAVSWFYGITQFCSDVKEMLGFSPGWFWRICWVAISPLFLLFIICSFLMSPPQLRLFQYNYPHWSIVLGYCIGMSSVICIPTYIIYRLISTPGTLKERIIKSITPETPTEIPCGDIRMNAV
T2 sequence (P31652 whole entry): as above
Sequence of NE Transporter (P23975 whole entry): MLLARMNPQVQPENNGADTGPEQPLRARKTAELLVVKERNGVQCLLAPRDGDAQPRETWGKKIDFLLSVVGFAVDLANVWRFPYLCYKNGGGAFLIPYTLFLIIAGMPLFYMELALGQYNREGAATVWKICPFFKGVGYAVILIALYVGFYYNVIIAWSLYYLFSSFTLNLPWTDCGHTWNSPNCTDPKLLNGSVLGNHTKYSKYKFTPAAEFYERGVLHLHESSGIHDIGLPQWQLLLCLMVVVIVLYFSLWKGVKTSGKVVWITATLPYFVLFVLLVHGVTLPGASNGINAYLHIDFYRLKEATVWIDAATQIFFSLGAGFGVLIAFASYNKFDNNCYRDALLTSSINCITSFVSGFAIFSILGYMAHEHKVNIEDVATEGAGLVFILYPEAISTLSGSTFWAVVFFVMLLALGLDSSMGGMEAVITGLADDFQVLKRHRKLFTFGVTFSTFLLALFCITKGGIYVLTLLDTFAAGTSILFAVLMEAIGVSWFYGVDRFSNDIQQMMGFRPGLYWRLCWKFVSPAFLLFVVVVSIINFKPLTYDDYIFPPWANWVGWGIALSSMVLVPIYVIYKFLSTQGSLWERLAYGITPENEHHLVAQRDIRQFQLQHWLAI

As for `CN(C)CCCC1(c2ccc(F)cc2)OCc2cc(C#N)ccc21` (racemic) [Racemic Citalopram, (±)-1-(3-dimethylaminopropyl)-1-(4-fluorophenyl)-1,3-dihydroisobenzofuran-5-carbonitrile, reference compound], in data set [1], the “affinity for neurotransmitter receptors, enzymes and other reuptake sites” value is reported as “negligible affinity”. The “inhibition of cytochrome P450 enzyme activity (not by more than)” value in the data set on cytochrome P450 enzymes is recorded as “mild degree”. This molecule had a pIC50 at NE uptake of 5.31.

Take `CNCCCC1(c2ccc(F)cc2)OCc2cc(C#N)ccc21` (racemic) [desmethylcitalopram, (±)-1-(3-methylaminopropyl)-1-(4-fluorophenyl)-1,3-dihydroisobenzofuran-5-carbonitrile]: in the data set on cytochrome P450 enzymes, the “inhibition of cytochrome P450 enzyme activity (not by more than)” value is “mild degree”.

With `CNCCCC1(c2ccc(F)cc2)OCc2cc(C#N)ccc21` (single isomer, unassigned; (+)) [(+)-Desmethylcitalopram], the pIC50 on 5-HT Transporter [2] was 8.89; against 5-HT uptake it was 8.24; at DA Transporter, 4.56; against DA uptake, 5.12; at NE Transporter, 4.99; against NE uptake it was 5.39. The negative-log Ki (pKi) is 9.57 on 5-HT Transporter [2], 4.90 on DA Transporter and 5.02 at NE Transporter.

On to `N#Cc1ccc2c(c1)COC2(CCCN)c1ccc(F)cc1` (single isomer, unassigned; (+)) [(+)-Didesmethylcitalopram], for which the pIC50 at 5-HT Transporter [2] was 7.72; at 5-HT Transporter [3] it was 6.66; at 5-HT uptake, 6.74; on DA Transporter, 4.26; at DA uptake it was 4.96; on NE Transporter, 4.62. The pIC50 at NE uptake is 5.48. For the same molecule, the pKi at 5-HT Transporter [2] was 8.41; at 5-HT Transporter [3], 7.05; at DA Transporter, 4.60; on NE Transporter, 4.65. Moreover, the “half-lives compared to citalopram” value in data set [4] is “measurably longer”.

For `N#Cc1ccc2c(c1)COC2(CCCN)c1ccc(F)cc1` (single isomer, unassigned; (-)) [(−)-Didesmethylcitalopram], the pIC50 at 5-HT Transporter [2] is 7.57; against 5-HT Transporter [3] it was 7.85; against 5-HT uptake it was 6.89; against DA Transporter, 4.41; on DA uptake, 5.57; on NE Transporter, 5.26. Further, at NE uptake, the pIC50 was 5.89. Moreover, the negative logarithm of the Ki (pKi) at 5-HT Transporter [2] was 8.26; on 5-HT Transporter [3], 8.24; on DA Transporter it was 4.75; on NE Transporter, 5.29. The “half-lives compared to citalopram” value in data set [4] was “measurably longer”.

For (−)-Desmethylcitalopram, the pIC50 was 7.96 against 5-HT Transporter [2]; 7.38 against 5-HT Transporter [3]; 6.96 against 5-HT uptake; 4.42 at DA Transporter; 5.03 against DA uptake; 6.09 against NE Transporter. This molecule also showed a negative logarithm of the IC50 (pIC50) on NE uptake of 5.77. The pKi was 8.64 on 5-HT Transporter [2], 7.77 at 5-HT Transporter [3], 4.77 on DA Transporter and 6.12 at NE Transporter. The “half-lives compared to citalopram” value in [4] was “measurably longer”.

By pIC50 is commonly meant the negative decadic logarithm of the IC50, by convention in mol/L. A high value points to a small IC50. As usually defined, the pKi is the negative decadic logarithm of the Ki, by convention in mol/L. The low end stands for a large Ki, the high end for a small Ki.
